Data as given in patent US20120309763A1, “ANTIFUNGAL COMPOSITION INTENDED TO BE APPLIED TO A PERFORATED NAIL” (priority 2009, published 2012).

Tests used:
[1] = Diffusion of terbinafine HCl through the layers of the nail, Franz cells (Example 10): dorsal layer; type: in vitro ADME; settings: 5 days
Excerpt: This temperature is checked before each withdrawal.

[2] = Diffusion of terbinafine HCl through the layers of the nail, Franz cells (Example 10): intermediate layer
Experimental: For each formulation, 2 nails (1 with the dorsal layer and 1 without the dorsal layer) are used per donor. The treatment time is 5 days with a new application of each formula every day. The amount of formula deposited daily on the surface of the nail is 10 μl/cm2.
For each donor, the thickness of the nails is measured. Then, for each donor, the nails are prepared in the following manner:
4 nails without dorsal layer: for the nails from this group, the dorsal face is removed using a miniature sander in order to reach the intermediate layer by removing 40% of the initial thickness of the nail,
The Franz type diffusion cells used are placed in a thermostatically-controlled bath in order to obtain a temperature of 32±1° C. at the surface of the nail. The nails are placed in the diffusion cell with the ventral side towards the receiving compartment, phosphate buffer (pH 7.4±0.1) containing 0.1% of Volpo (Oleth-20). During the experiment, the diffusion cells are placed in a thermostatically-controlled bath in order to obtain a temperature of 32±1° C. This temperature is checked before each withdrawal. […]
The samples, receiving liquids and nail extracts are then analysed by MS/MS. […]
The procedures of the study and also the amounts of terbinafine HCl in the various layers of the nail, dorsal and intermediate, were carried out and analysed according to the same protocol as before.

factor of better diffusion in the intermediate layer relative to the dorsal layer ([2]; composition with amphoteric agent)	Compound	increase of the penetration of terbinafine through the dorsal layer by the presence of the amphoteric agent (×) ([1]; 10% solution with vs without amphoteric agent)	factor of reduction of the amount of terbinafine HCl in the nail by the presence of the amphoteric agent ([1]; Lamisil Spray 1% with vs without amphoteric agent, dorsal layer)	factor of reduction of the amount of terbinafine HCl in the nail by the presence of the amphoteric agent ([2]; Lamisil Spray 1% with vs without amphoteric agent, intermediate layer, 5 days)
–	CCCCCCCCCCCC[N+](C)(C)CC(=O)[O-] [amphoteric agent, Lauryl Dimethylaminoacetic Acid Betaine]	3	3	3
3	CN(C/C=C/C#CC(C)(C)C)Cc1cccc2ccccc12.Cl [terbinafine HCl, terbinafine hydrochloride, reference compound]	–	–	–
